{"source": "PubChem BioAssay AID2060902", "about": "(Molecular Pharmacology Branch, DTP, NCI, 2025);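 note: spheroids exposed to agents for seven days before readout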", "system": "485368-065-R3-J5-PDC spheroids with HUVEC/MSC, viability", "experiment": "Anticancer human tumor 485368-065-R3-J5-PDC patient-derived pancreatic carcinoma cell line growth inhibition [RAS]", "details": "for IC50: curve of first compound; for viability, T/C: stronger effect = lower value", "outline": "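Agents were tested in combination matrices in half-log decrements from a top concentration at or near clinical Cmax (10 microM if undetermined). Targets were multi-cell spheroids of tumour lines plus HUVEC and MSC stromal cells.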", "key": {"[1]": {"details": "second compound 0.0316 µM, first compound 0.0316 µM"}, "[2]": {"details": "second compound 0.0316 µM, first compound 0.1 µM"}, "[3]": {"details": "second compound 0.0316 µM, first compound 0.316 µM"}, "[4]": {"details": "second compound 0.0316 µM, first compound 1 µM"}, "[5]": {"details": "second compound 0.1 µM, first compound 0.0316 µM"}, "[6]": {"details": "second compound 0.1 µM, first compound 0.1 µM"}, "[7]": {"details": "second compound 0.1 µM, first compound 0.316 µM"}, "[8]": {"details": "second compound 0.1 µM, first compound 1 µM"}, "[9]": {"details": "second compound 0.316 µM, first compound 0.0316 µM"}, "[10]": {"details": "second compound 0.316 µM, first compound 0.1 µM"}, "[11]": {"details": "second compound 0.316 µM, first compound 0.316 µM"}, "[12]": {"details": "second compound 0.316 µM, first compound 1 µM"}, "[13]": {"details": "second compound 1 µM, first compound 0.0316 µM"}, "[14]": {"details": "second compound 1 µM, first compound 0.1 µM"}, "[15]": {"details": "second compound 1 µM, first compound 0.316 µM"}, "[16]": {"details": "second compound 1 µM, first compound 1 µM"}, "[17]": {"details": "second compound 3.16 µM, first compound 0.0316 µM"}, "[18]": {"details": "second compound 3.16 µM, first compound 0.1 µM"}, "[19]": {"details": "second compound 3.16 µM, first compound 0.316 µM"}, "[20]": {"details": "second compound 3.16 µM, first compound 1 µM"}, "[21]": {"details": "second compound 10 µM, first compound 0.0316 µM"}, "[22]": {"details": "second compound 10 µM, first compound 0.1 µM"}, "[23]": {"details": "second compound 10 µM, first compound 0.316 µM"}, "[24]": {"details": "second compound 10 µM, first compound 1 µM"}}}
{"smiles": "C=CC(=O)N1CCN(c2nc(OCC3CCCN3C)nc3c(F)c(-c4nc(N)cc(C)c4C(F)(F)F)c(Cl)cc23)C(C)C1", "note": "(centres undefined) + C#Cc1c(F)ccc2cc(O)cc(-c3ncc4c(N5CC6CCC(C5)N6)nc(OCC56CCCN5CC(F)C6)nc4c3F)c12", "values": [{"measurement": "IC50", "setting": "second compound 0.0316 µM", "result": "> 1000", "unit": "nM"}, {"measurement": "IC50", "setting": "second compound 0.1 µM", "result": "> 1000", "unit": "nM"}, {"measurement": "IC50", "setting": "second compound 0.316 µM", "result": "> 1000", "unit": "nM"}, {"measurement": "IC50", "setting": "second compound 1 µM", "result": "> 1000", "unit": "nM"}, {"measurement": "IC50", "setting": "second compound 3.16 µM", "result": 794, "unit": "nM"}, {"measurement": "IC50", "setting": "second compound 10 µM", "result": "< 3.16", "unit": "nM"}, {"measurement": "viability, T/C", "setting": "second compound 0.0316 µM, first compound 0.00316 µM", "result": 101, "unit": "%"}, {"measurement": "viability, T/C", "setting": "second compound 0.0316 µM, first compound 0.01 µM", "result": 95.6, "unit": "%"}, {"measurement": "viability, T/C", "setting": "[1]", "result": 112, "unit": "%"}, {"measurement": "viability, T/C", "setting": "[2]", "result": 106, "unit": "%"}, {"measurement": "viability, T/C", "setting": "[3]", "result": 100, "unit": "%"}, {"measurement": "viability, T/C", "setting": "[4]", "result": 107, "unit": "%"}, {"measurement": "viability, T/C", "setting": "second compound 0.1 µM, first compound 0.00316 µM", "result": 102, "unit": "%"}, {"measurement": "viability, T/C", "setting": "second compound 0.1 µM, first compound 0.01 µM", "result": 100, "unit": "%"}, {"measurement": "viability, T/C", "setting": "[5]", "result": 106, "unit": "%"}, {"measurement": "viability, T/C", "setting": "[6]", "result": 101, "unit": "%"}, {"measurement": "viability, T/C", "setting": "[7]", "result": 117, "unit": "%"}, {"measurement": "viability, T/C", "setting": "[8]", "result": 110, "unit": "%"}, {"measurement": "viability, T/C", "setting": "second compound 0.316 µM, first compound 0.00316 µM", "result": 105, "unit": "%"}, {"measurement": "viability, T/C", "setting": "second compound 0.316 µM, first compound 0.01 µM", "result": 104, "unit": "%"}, {"measurement": "viability, T/C", "setting": "[9]", "result": 93.6, "unit": "%"}, {"measurement": "viability, T/C", "setting": "[10]", "result": 98.5, "unit": "%"}, {"measurement": "viability, T/C", "setting": "[11]", "result": 103, "unit": "%"}, {"measurement": "viability, T/C", "setting": "[12]", "result": 101, "unit": "%"}, {"measurement": "viability, T/C", "setting": "second compound 1 µM, first compound 0.00316 µM", "result": 94.3, "unit": "%"}, {"measurement": "viability, T/C", "setting": "second compound 1 µM, first compound 0.01 µM", "result": 95.9, "unit": "%"}, {"measurement": "viability, T/C", "setting": "[13]", "result": 98.7, "unit": "%"}, {"measurement": "viability, T/C", "setting": "[14]", "result": 97.6, "unit": "%"}, {"measurement": "viability, T/C", "setting": "[15]", "result": 94.8, "unit": "%"}, {"measurement": "viability, T/C", "setting": "[16]", "result": 72.1, "unit": "%"}, {"measurement": "viability, T/C", "setting": "second compound 3.16 µM, first compound 0.00316 µM", "result": 89.7, "unit": "%"}, {"measurement": "viability, T/C", "setting": "second compound 3.16 µM, first compound 0.01 µM", "result": 83.2, "unit": "%"}, {"measurement": "viability, T/C", "setting": "[17]", "result": 81.7, "unit": "%"}, {"measurement": "viability, T/C", "setting": "[18]", "result": 72.3, "unit": "%"}, {"measurement": "viability, T/C", "setting": "[19]", "result": 71.2, "unit": "%"}, {"measurement": "viability, T/C", "setting": "[20]", "result": 44.4, "unit": "%"}, {"measurement": "viability, T/C", "setting": "second compound 10 µM, first compound 0.00316 µM", "result": 38.1, "unit": "%"}, {"measurement": "viability, T/C", "setting": "second compound 10 µM, first compound 0.01 µM", "result": 40.3, "unit": "%"}, {"measurement": "viability, T/C", "setting": "[21]", "result": 38.3, "unit": "%"}, {"measurement": "viability, T/C", "setting": "[22]", "result": 41.7, "unit": "%"}, {"measurement": "viability, T/C", "setting": "[23]", "result": 36.5, "unit": "%"}, {"measurement": "viability, T/C", "setting": "[24]", "result": 36.6, "unit": "%"}]}
{"smiles": "CC(=O)OC12COC1CC(O)C1(C)C(=O)C(O)C3=C(C)C(OC(=O)C(O)C(NC(=O)OC(C)(C)C)c4ccccc4)CC(O)(C(OC(=O)c4ccccc4)C21)C3(C)C", "note": "(centres undefined) + C#Cc1c(F)ccc2cc(O)cc(-c3ncc4c(N5CC6CCC(C5)N6)nc(OCC56CCCN5CC(F)C6)nc4c3F)c12", "values": [{"measurement": "IC50", "setting": "second compound 0.0316 µM", "result": "< 31.6", "unit": "nM"}, {"measurement": "IC50", "setting": "second compound 0.1 µM", "result": "< 31.6", "unit": "nM"}, {"measurement": "IC50", "setting": "second compound 0.316 µM", "result": "< 31.6", "unit": "nM"}, {"measurement": "IC50", "setting": "second compound 1 µM", "result": "< 31.6", "unit": "nM"}, {"measurement": "IC50", "setting": "second compound 3.16 µM", "result": "< 31.6", "unit": "nM"}, {"measurement": "IC50", "setting": "second compound 10 µM", "result": "< 31.6", "unit": "nM"}, {"measurement": "viability, T/C", "setting": "[1]", "result": 12.5, "unit": "%"}, {"measurement": "viability, T/C", "setting": "[2]", "result": 12.5, "unit": "%"}, {"measurement": "viability, T/C", "setting": "[3]", "result": 13, "unit": "%"}, {"measurement": "viability, T/C", "setting": "[4]", "result": 12.7, "unit": "%"}, {"measurement": "viability, T/C", "setting": "second compound 0.0316 µM, first compound 3.16 µM", "result": 18.7, "unit": "%"}, {"measurement": "viability, T/C", "setting": "second compound 0.0316 µM, first compound 10 µM", "result": 23.6, "unit": "%"}, {"measurement": "viability, T/C", "setting": "[5]", "result": 11, "unit": "%"}, {"measurement": "viability, T/C", "setting": "[6]", "result": 10.2, "unit": "%"}, {"measurement": "viability, T/C", "setting": "[7]", "result": 14.2, "unit": "%"}, {"measurement": "viability, T/C", "setting": "[8]", "result": 14.4, "unit": "%"}, {"measurement": "viability, T/C", "setting": "second compound 0.1 µM, first compound 3.16 µM", "result": 19.8, "unit": "%"}, {"measurement": "viability, T/C", "setting": "second compound 0.1 µM, first compound 10 µM", "result": 16.9, "unit": "%"}, {"measurement": "viability, T/C", "setting": "[9]", "result": 13, "unit": "%"}, {"measurement": "viability, T/C", "setting": "[10]", "result": 13.3, "unit": "%"}, {"measurement": "viability, T/C", "setting": "[11]", "result": 17.1, "unit": "%"}, {"measurement": "viability, T/C", "setting": "[12]", "result": 14.9, "unit": "%"}, {"measurement": "viability, T/C", "setting": "second compound 0.316 µM, first compound 3.16 µM", "result": 15.4, "unit": "%"}, {"measurement": "viability, T/C", "setting": "second compound 0.316 µM, first compound 10 µM", "result": 14.4, "unit": "%"}, {"measurement": "viability, T/C", "setting": "[13]", "result": 11.2, "unit": "%"}, {"measurement": "viability, T/C", "setting": "[14]", "result": 13.9, "unit": "%"}, {"measurement": "viability, T/C", "setting": "[15]", "result": 12.4, "unit": "%"}, {"measurement": "viability, T/C", "setting": "[16]", "result": 16.5, "unit": "%"}, {"measurement": "viability, T/C", "setting": "second compound 1 µM, first compound 3.16 µM", "result": 14.7, "unit": "%"}, {"measurement": "viability, T/C", "setting": "second compound 1 µM, first compound 10 µM", "result": 26.3, "unit": "%"}, {"measurement": "viability, T/C", "setting": "[17]", "result": 11.3, "unit": "%"}, {"measurement": "viability, T/C", "setting": "[18]", "result": 9.14, "unit": "%"}, {"measurement": "viability, T/C", "setting": "[19]", "result": 12, "unit": "%"}, {"measurement": "viability, T/C", "setting": "[20]", "result": 15.7, "unit": "%"}, {"measurement": "viability, T/C", "setting": "second compound 3.16 µM, first compound 3.16 µM", "result": 19.1, "unit": "%"}, {"measurement": "viability, T/C", "setting": "second compound 3.16 µM, first compound 10 µM", "result": 16.1, "unit": "%"}, {"measurement": "viability, T/C", "setting": "[21]", "result": 12.9, "unit": "%"}, {"measurement": "viability, T/C", "setting": "[22]", "result": 11.2, "unit": "%"}, {"measurement": "viability, T/C", "setting": "[23]", "result": 10.8, "unit": "%"}, {"measurement": "viability, T/C", "setting": "[24]", "result": 14.3, "unit": "%"}, {"measurement": "viability, T/C", "setting": "second compound 10 µM, first compound 3.16 µM", "result": 14.7, "unit": "%"}, {"measurement": "viability, T/C", "setting": "second compound 10 µM, first compound 10 µM", "result": 19.1, "unit": "%"}]}
